{
  "source": "patent US7501530B2",
  "about": "“Trifluoromethyl-thiophene carboxylic acid aniledes and use thereof as fungicides” (BASF Aktiengesellschaft, priority 2003, dated 2009)",
  "key": {"Botrytis cinerea [1]": {"system": "Botrytis cinerea", "test": "Activity and persistency against gray mold on bell-pepper leaves (Use Example 1)", "assay_type": "in vivo", "settings": "63 ppm spray; bell-pepper seedlings; inoculated 7 days after treatment; assessed visually after 5 days; untreated 90%", "method": "Activity and Persistency against Gray Mold, Caused by Botrytis cinerea, on Bell-pepper Leaves Bell-pepper seedlings of the cultivar “Neusiedler Ideal Elite” having 4-5 well-developed leaves were sprayed to runoff point with an aqueous suspension having the concentration stated below of active compounds. The suspension or emulsion was prepared from a stock solution containing 10% of active compound in a mixture comprising 85% of cyclohexanone and 5% of emulsifier. The plants were then cultivated for a further 7 days, and the treated plants were then inoculated with a spore suspension of Botrytis cinerea, which comprised 1.7×10^6 spores/ml in a 2% strength aqueous biomalt solution. The test plants were then placed in a climatized chamber at 22-24° C. in high atmospheric humidity. After 5 days, the extent of the fungal infection on the leaves could be determined visually in %, giving not only an indication of the fungicidal action of the substances but also of the persistency."}, "Sphaerotheca fuliginea": {"system": "Sphaerotheca fuliginea", "test": "Protective activity against mildew of cucumber (Use Example 3)", "assay_type": "in vivo", "settings": "63 ppm spray; cucumber seedlings, cotyledon area; inoculated 20 hours after spray coating dried; assessed after 7 days; untreated 90%", "method": "Protective Activity Against Mildew of Cucumber Caused by Sphaerotheca fuliginea Leaves of potted cucumber seedlings of the cultivar “Chinese Snake”, in the cotyledon stage, were sprayed to runoff point with an aqueous suspension having the concentration stated below of active compounds. The suspension or emulsion was prepared from a stock solution containing 10% of active compound in a mixture comprising 85% of cyclohexanone and 5% of emulsifier. 20 hours after the spray coating had dried on, the plants were inoculated with an aqueous spore suspension of mildew of cucumber (Sphaerotheca fuliginea). The plants were then cultivated in a greenhouse at 20-24° C. and 60-80% relative atmospheric humidity for 7 days. The extent of mildew development was then determined visually in % infection of the cotyledon area."}, "Botrytis cinerea [2]": {"system": "Botrytis cinerea", "test": "Protective activity against gray mold on bell-pepper leaves (Use Example 2)", "assay_type": "in vivo", "settings": "250 ppm spray; bell-pepper seedlings; inoculated the next day; assessed visually after 5 days; untreated 100%", "description": "Protective Activity against Gray Mold, Caused by Botrytis cinerea, on Bell-pepper Leaves Bell-pepper seedlings of the cultivar “Neusiedler Ideal Elite” having 4-5 well-developed leaves were sprayed to runoff point with an aqueous suspension having the concentration stated below of active compounds. The active compounds were separately prepared as a stock solution containing 0.25% by weight of active compound in acetone or dimethyl sulfoxide. This solution was admixed with 1% by weight of Emulgator Uniperol® EL (wetting agent based on ethoxylated alkylphenols which has an emulsifying and dispersing effect) and diluted with water to the desired concentration. The next day, the treated plants were inoculated with a spore suspension of Botrytis cinerea, comprising 1.7×10^6 spores/ml in a 2% strength aqueous biomalt solution. The test plants were then placed in a climatized chamber at 22-24° C. in high atmospheric humidity. After 5 days, the extent of the fungal infection on the leaves could be determined visually in %."}},
  "data": [
    {"smiles": "CCC(C)c1ccccc1NC(=O)c1sccc1C(F)(F)F", "note": "(stereo not drawn) [I-1]", "values": [
      {"measurement": "Foliar infection [%] at 63 ppm", "setting": "Botrytis cinerea [1]", "value": 5, "unit": "%"}
    ]},
    {"smiles": "O=C(Nc1ccccc1C1CCCC1)c1sccc1C(F)(F)F", "note": "[I-2]", "values": [
      {"measurement": "Foliar infection [%] at 63 ppm", "setting": "Botrytis cinerea [1]", "value": 7, "unit": "%"}
    ]},
    {"smiles": "O=C(Nc1ccccc1C1CCCCC1)c1sccc1C(F)(F)F", "note": "[I-3]", "values": [
      {"measurement": "Foliar infection [%] at 63 ppm", "setting": "Botrytis cinerea [1]", "value": 3, "unit": "%"},
      {"measurement": "Foliar infection [%] at 63 ppm", "setting": "Sphaerotheca fuliginea", "value": 5, "unit": "%"}
    ]},
    {"smiles": "O=C(Nc1ccccc1OC(F)(F)C(F)F)c1sccc1C(F)(F)F", "note": "[I-5]", "values": [
      {"measurement": "Foliar infection [%] at 63 ppm", "setting": "Botrytis cinerea [1]", "value": 3, "unit": "%"},
      {"measurement": "Foliar infection [%] at 63 ppm", "setting": "Sphaerotheca fuliginea", "value": 5, "unit": "%"}
    ]},
    {"smiles": "O=C(Nc1ccccc1-c1ccc(Cl)cc1)c1sccc1C(F)(F)F", "note": "[I-6]", "values": [
      {"measurement": "Foliar infection [%] at 63 ppm", "setting": "Botrytis cinerea [1]", "value": 1, "unit": "%"},
      {"measurement": "Foliar infection [%] at 63 ppm", "setting": "Sphaerotheca fuliginea", "value": 0, "unit": "%"}
    ]},
    {"smiles": "O=C(Nc1ccccc1-c1ccc(F)cc1)c1sccc1C(F)(F)F", "note": "[I-7]", "values": [
      {"measurement": "Foliar infection [%] at 63 ppm", "setting": "Botrytis cinerea [1]", "value": 1, "unit": "%"},
      {"measurement": "Foliar infection [%] at 63 ppm", "setting": "Sphaerotheca fuliginea", "value": 0, "unit": "%"}
    ]},
    {"smiles": "CC(C)Oc1cccc(NC(=O)c2sccc2C(F)(F)F)c1", "note": "[I-8]", "values": [
      {"measurement": "Foliar infection [%] at 63 ppm", "setting": "Botrytis cinerea [1]", "value": 10, "unit": "%"}
    ]},
    {"smiles": "O=C(Nc1cccc(OC2CCCC2)c1)c1sccc1C(F)(F)F", "note": "[I-11]", "values": [
      {"measurement": "Foliar infection [%] at 63 ppm", "setting": "Botrytis cinerea [1]", "value": 7, "unit": "%"}
    ]},
    {"smiles": "O=C(Nc1ccccc1-c1ccccc1)c1sccc1C(F)(F)F", "note": "[I-12]", "values": [
      {"measurement": "Foliar infection [%] at 63 ppm", "setting": "Sphaerotheca fuliginea", "value": 0, "unit": "%"}
    ]},
    {"smiles": "CC(C)c1ccc(-c2ccccc2NC(=O)c2sccc2C(F)(F)F)cc1", "note": "[I-13]", "values": [
      {"measurement": "Foliar infection [%] at 63 ppm", "setting": "Sphaerotheca fuliginea", "value": 0, "unit": "%"}
    ]},
    {"smiles": "O=C(Nc1ccccc1OCC(F)(F)F)c1sccc1C(F)(F)F", "note": "[I-14, N-(2-(2,2,2-trifluoroethoxy)phenyl)-3-trifluoromethylthiophene-2-carboxamide]", "values": [
      {"measurement": "melting point", "value": "125 to 127", "unit": "°C"}
    ]},
    {"smiles": "O=C(Nc1ccccc1C1CCCC1)c1ccsc1C(F)(F)F", "note": "[II-2]", "values": [
      {"measurement": "Foliar infection [%] at 63 ppm", "setting": "Botrytis cinerea [1]", "value": 10, "unit": "%"}
    ]},
    {"smiles": "O=C(Nc1ccccc1C1CCCCC1)c1ccsc1C(F)(F)F", "note": "[II-3]", "values": [
      {"measurement": "Foliar infection [%] at 63 ppm", "setting": "Botrytis cinerea [1]", "value": 5, "unit": "%"},
      {"measurement": "Foliar infection [%] at 63 ppm", "setting": "Sphaerotheca fuliginea", "value": 3, "unit": "%"}
    ]},
    {"smiles": "O=C(Nc1ccccc1OC(F)(F)C(F)F)c1ccsc1C(F)(F)F", "note": "[II-5]", "values": [
      {"measurement": "Foliar infection [%] at 63 ppm", "setting": "Botrytis cinerea [1]", "value": 3, "unit": "%"}
    ]},
    {"smiles": "O=C(Nc1ccccc1-c1ccc(Cl)cc1)c1ccsc1C(F)(F)F", "note": "[II-6]", "values": [
      {"measurement": "Foliar infection [%] at 63 ppm", "setting": "Sphaerotheca fuliginea", "value": 0, "unit": "%"}
    ]},
    {"smiles": "O=C(Nc1ccccc1-c1ccc(F)cc1)c1ccsc1C(F)(F)F", "note": "[II-7]", "values": [
      {"measurement": "Foliar infection [%] at 63 ppm", "setting": "Botrytis cinerea [1]", "value": 1, "unit": "%"},
      {"measurement": "Foliar infection [%] at 63 ppm", "setting": "Sphaerotheca fuliginea", "value": 5, "unit": "%"}
    ]},
    {"smiles": "CC(C)Oc1cccc(NC(=O)c2ccsc2C(F)(F)F)c1", "note": "[II-8, N-(3-isopropoxyphenyl)-2-trifluoromethylthiophene-3-carboxamide]", "values": [
      {"measurement": "Foliar infection [%] at 63 ppm", "setting": "Botrytis cinerea [1]", "value": 5, "unit": "%"}
    ]},
    {"smiles": "CCCCCCOc1cccc(NC(=O)c2ccsc2C(F)(F)F)c1", "note": "[II-10]", "values": [
      {"measurement": "Foliar infection [%] at 63 ppm", "setting": "Botrytis cinerea [1]", "value": 10, "unit": "%"}
    ]},
    {"smiles": "Cc1ccccc1-c1ccccc1NC(=O)c1cscc1C(F)(F)F", "note": "[III-4]", "values": [
      {"measurement": "Foliar infection [%] at 250 ppm", "setting": "Botrytis cinerea [2]", "value": 3, "unit": "%"}
    ]},
    {"smiles": "CCC(C)c1ccccc1NC(=O)c1cscc1C(F)(F)F", "note": "(stereo not drawn) [III-5]", "values": [
      {"measurement": "Foliar infection [%] at 250 ppm", "setting": "Botrytis cinerea [2]", "value": 3, "unit": "%"}
    ]},
    {"smiles": "O=C(Nc1ccccc1C1CCCC1)c1cscc1C(F)(F)F", "note": "[III-7]", "values": [
      {"measurement": "Foliar infection [%] at 250 ppm", "setting": "Botrytis cinerea [2]", "value": 7, "unit": "%"}
    ]}
  ]
}
